According to ChEMBL document CHEMBL4024706 (Eur J Med Chem, 2017):

Legend:
[1] = target: cAMP-dependent protein kinase catalytic subunit beta (Homo sapiens) (UniProt P22694); assay: Inhibition of wild-type human full length PKAC-beta (M1 to F351 residues) expressed in bacterial expression system assessed as residual activity at 1 uM by Kinomescan method relative to control
[2] = target: Mitogen-activated protein kinase 6 (Homo sapiens) (UniProt Q16659); assay: Inhibition of wild-type human partial length ERK3 (M1 to P413 residues) expressed in bacterial expression system assessed as residual activity at 1 uM by Kinomescan method relative to control
[3] = target: Mast/stem cell growth factor receptor Kit (Homo sapiens) (UniProt P10721); assay: Inhibition of wild-type human partial length KIT (I571 to D952 residues) expressed in bacterial expression system assessed as residual activity at 1 uM by Kinomescan method relative to control
[4] = target: Inhibitor of nuclear factor kappa-B kinase subunit beta (Homo sapiens) (UniProt O14920); assay: Inhibition of wild-type human full length IKK-beta (M1 to S756 residues) expressed in mammalian expression system assessed as residual activity at 1 uM by Kinomescan method relative to control
[5] = target: Wee1-like protein kinase (Homo sapiens) (UniProt P30291); assay: Inhibition of wild-type human partial length WEE1 (M291 to K575 residues) expressed in bacterial expression system assessed as residual activity at 1 uM by Kinomescan method relative to control
[6] = target: Serine/threonine-protein kinase pim-1 (Homo sapiens) (UniProt P11309); assay: Inhibition of wild-type human partial length PIM1 (A15 to K313 residues) expressed in bacterial expression system assessed as residual activity at 1 uM by Kinomescan method relative to control
[7] = target: Serine/threonine-protein kinase 32A (Homo sapiens) (UniProt Q8WU08); assay: Inhibition of wild-type human full length YANK1 (M1 to L396 residues) expressed in mammalian expression system assessed as residual activity at 1 uM by Kinomescan method relative to control
[8] = target: Cyclin-dependent kinase 4/cyclin D1 (Homo sapiens) (UniProt P11802+P24385); assay: Inhibition of wild-type human full length CDK4/cyclinD1 (M1 to E303 residues) expressed in mammalian expression system assessed as residual activity at 1 uM by Kinomescan method relative to control
[9] = target: Serine/threonine-protein kinase Sgk1 (Homo sapiens) (UniProt O00141); assay: Inhibition of wild-type human partial length SGK (I60 to L431 residues) expressed in mammalian expression system assessed as residual activity at 1 uM by Kinomescan method relative to control
[10] = target: Tyrosine-protein kinase ITK/TSK (Homo sapiens) (UniProt Q08881); assay: Inhibition of wild-type human partial length ITK (R335 to L620 residues) expressed in bacterial expression system assessed as residual activity at 1 uM by Kinomescan method relative to control
[11] = target: Cyclin-dependent kinase-like 1 (Homo sapiens) (UniProt Q00532); assay: Inhibition of wild-type human full length CDKL1 (M1 to I358 residues) expressed in mammalian expression system assessed as residual activity at 1 uM by Kinomescan method relative to control
[12] = target: Receptor-interacting serine/threonine-protein kinase 4 (Homo sapiens) (UniProt P57078); assay: Inhibition of wild-type human partial length RIPK4 (M1 to V303 residues) expressed in mammalian expression system assessed as residual activity at 1 uM by Kinomescan method relative to control
[13] = target: Serine/threonine-protein kinase 38-like (Homo sapiens) (UniProt Q9Y2H1); assay: Inhibition of wild-type human partial length NDR2 (N34 to E447 residues) expressed in bacterial expression system assessed as residual activity at 1 uM by Kinomescan method relative to control
[14] = target: Myosin light chain kinase 2, skeletal/cardiac muscle (Homo sapiens) (UniProt Q9H1R3); assay: Inhibition of wild-type human partial length MYLK2 (D258 to K570 residues) expressed in bacterial expression system assessed as residual activity at 1 uM by Kinomescan method relative to control
[15] = target: Serine/threonine-protein kinase WNK4 (Homo sapiens) (UniProt Q96J92); assay: Inhibition of wild-type human partial length WNK4 (A31 to D461 residues) expressed in mammalian expression system assessed as residual activity at 1 uM by Kinomescan method relative to control
[16] = target: SNF-related serine/threonine-protein kinase (Homo sapiens) (UniProt Q9NRH2); assay: Inhibition of wild-type human partial length SNRK (M1 to E339 residues) expressed in mammalian expression system assessed as residual activity at 1 uM by Kinomescan method relative to control
[17] = target: Mitogen-activated protein kinase kinase kinase 4 (Homo sapiens) (UniProt Q9Y6R4); assay: Inhibition of wild-type human partial length MAP3K4 (G1319 to E1608 residues) expressed in bacterial expression system assessed as residual activity at 1 uM by Kinomescan method relative to control
[18] = target: MAP kinase-interacting serine/threonine-protein kinase 2 (Homo sapiens) (UniProt Q9HBH9); assay: Inhibition of wild-type human partial length MKNK2 (G63 to S388 residues) expressed in mammalian expression system assessed as residual activity at 1 uM by Kinomescan method relative to control
[19] = target: Tyrosine-protein kinase BTK (Homo sapiens, UniProt Q06187, C481S); assay: Irreversible inhibition of recombinant full length 3'-FLAG-tagged BTK C481S mutant (unknown origin) expressed in HEK293T cells assessed as reduction in Y223 phosphorylation measured after 4 hrs by Western blot method; type: cell-based
[20] = test system: Tyrosine-protein kinase ABL1 (Homo sapiens), P00519 [E255K]; assay: Inhibition of human phosphorylated ABL1 E255K mutant (S229 to K512 residues) expressed in mammalian expression system assessed as residual activity at 1 uM by Kinomescan method relative to control
[21] = target: Tyrosine-protein kinase BTK (Homo sapiens, UniProt Q06187); assay: Inhibition of full length recombinant human N-terminal His tagged […] expressed in baculovirus infected Sf9 insect cells using poly (Glu,Tyr)4:1 as substrate pretreated for 60 mins followed by substrate addition after 1 hr by ADP-Glo luminescence assay
[22] = target: Ephrin type-B receptor 3 (Homo sapiens) (UniProt P54753); assay: Inhibition of wild-type human partial length EPHB3 (Q599 to T928 residues) expressed in bacterial expression system assessed as residual activity at 1 uM by Kinomescan method relative to control
[23] = target: cAMP-dependent protein kinase catalytic subunit PRKX (Homo sapiens) (UniProt P51817); assay: Inhibition of wild-type human partial length PRKX (M1 to F358 residues) expressed in bacterial expression system assessed as residual activity at 1 uM by Kinomescan method relative to control
[24] = target: Mitogen-activated protein kinase 8 (Homo sapiens) (UniProt P45983); assay: Inhibition of wild-type human full length JNK1 (M1 to Q384 residues) expressed in mammalian expression system assessed as residual activity at 1 uM by Kinomescan method relative to control
[25] = target: NUAK family SNF1-like kinase 2 (Homo sapiens) (UniProt Q9H093); assay: Inhibition of wild-type human partial length SNARK (P22 to A333 residues) expressed in mammalian expression system assessed as residual activity at 1 uM by Kinomescan method relative to control

Structure (SMILES): C=CC(=O)Nc1cc(Nc2cc(-c3cccc(NC(=O)c4ccc(C(C)(C)C)cc4)c3C)cn(C)c2=O)ccc1C(=O)N1CCOCC1
- Activity [1]: 96%
- Activity [2]: 100%
- Activity [3]: 98%
- Activity [4]: 100%
- Activity [5]: 99%
- Activity [6]: 100%
- Activity [7]: 83%
- Activity [8]: 100%
- Activity [9]: 95%
- Activity [10]: 100%
- Activity [11]: 100%
- Activity [12]: 94%
- Activity [13]: 100%
- Activity [14]: 100%
- Activity [15]: 100%
- Activity [16]: 80%
- Activity [17]: 89%
- Activity [18]: 89%
- EC50 [19]: > 100 nM
- Activity [20]: 100%
- IC50 [21]: 7 nM
- Activity [22]: 92%
- Activity [23]: 98%
- Activity [24]: 100%
- Activity [25]: 87%
